Columns and labels:
[1] = target: pEGFR (Tyr1068) in PC-9 cells (Ex19Del) (Homo sapiens (Human), UniProt P00533, DEL746-750); experiment: PC-9 pEGFR AlphaLISA assay; assay type: cell-based; conditions: 4 hours incubation, p-EGFR (Tyr1068) AlphaLISA, read-out: Ext pEGFR_PC-9 Ex19Del IC50
Procedure, shortened: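 First, cells settled overnight in 10% FBS medium. Second, a 10-point, 4-fold series of test agents was applied for 4 h at 37° C. Third, lysates were probed with AlphaLISA acceptor and donor beads, incubated overnight in the dark. Last, IC50 was taken from the dose-response.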

EGFR L858R = EGFR L858R (Homo sapiens (Human), UniProt P00533, L858R); experiment: Biochemical EGFR inhibition assay, EGFR L858R; conditions: Caliper mobility shift; 1.0 mM ATP or ATP Km; read-out: Enz EGFR_L858R IC50
EGFR (d746-750) = EGFR (d746-750) (Homo sapiens (Human), UniProt P00533, DEL746-750); experiment: Biochemical EGFR inhibition assay, EGFR (d746-750); conditions: Caliper mobility shift; 1.0 mM ATP or ATP Km; read-out: Enz EGFR_Exon19-del746-750 IC50
Chain of EGFR (d746-750) (P00533 other isoform, or with tags, fused parts or gaps del 1-694/del 746-750 limits assumed): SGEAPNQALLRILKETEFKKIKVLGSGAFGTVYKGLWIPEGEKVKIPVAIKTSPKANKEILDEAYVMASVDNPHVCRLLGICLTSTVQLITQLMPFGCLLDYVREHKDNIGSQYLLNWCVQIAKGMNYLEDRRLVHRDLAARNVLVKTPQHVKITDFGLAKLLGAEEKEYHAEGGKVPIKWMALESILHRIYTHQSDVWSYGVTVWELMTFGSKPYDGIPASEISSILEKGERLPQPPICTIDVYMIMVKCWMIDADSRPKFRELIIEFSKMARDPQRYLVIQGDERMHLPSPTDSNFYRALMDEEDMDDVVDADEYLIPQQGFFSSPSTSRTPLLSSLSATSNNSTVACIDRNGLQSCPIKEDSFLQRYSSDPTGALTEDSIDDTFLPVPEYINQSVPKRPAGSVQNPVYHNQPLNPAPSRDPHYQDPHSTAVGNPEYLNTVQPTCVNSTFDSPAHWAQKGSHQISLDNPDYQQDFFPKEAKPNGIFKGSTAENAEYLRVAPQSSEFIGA

Chain of pEGFR (Tyr1068) in PC-9 cells (Ex19Del) (P00533 other isoform, or with tags, fused parts or gaps del 746-750): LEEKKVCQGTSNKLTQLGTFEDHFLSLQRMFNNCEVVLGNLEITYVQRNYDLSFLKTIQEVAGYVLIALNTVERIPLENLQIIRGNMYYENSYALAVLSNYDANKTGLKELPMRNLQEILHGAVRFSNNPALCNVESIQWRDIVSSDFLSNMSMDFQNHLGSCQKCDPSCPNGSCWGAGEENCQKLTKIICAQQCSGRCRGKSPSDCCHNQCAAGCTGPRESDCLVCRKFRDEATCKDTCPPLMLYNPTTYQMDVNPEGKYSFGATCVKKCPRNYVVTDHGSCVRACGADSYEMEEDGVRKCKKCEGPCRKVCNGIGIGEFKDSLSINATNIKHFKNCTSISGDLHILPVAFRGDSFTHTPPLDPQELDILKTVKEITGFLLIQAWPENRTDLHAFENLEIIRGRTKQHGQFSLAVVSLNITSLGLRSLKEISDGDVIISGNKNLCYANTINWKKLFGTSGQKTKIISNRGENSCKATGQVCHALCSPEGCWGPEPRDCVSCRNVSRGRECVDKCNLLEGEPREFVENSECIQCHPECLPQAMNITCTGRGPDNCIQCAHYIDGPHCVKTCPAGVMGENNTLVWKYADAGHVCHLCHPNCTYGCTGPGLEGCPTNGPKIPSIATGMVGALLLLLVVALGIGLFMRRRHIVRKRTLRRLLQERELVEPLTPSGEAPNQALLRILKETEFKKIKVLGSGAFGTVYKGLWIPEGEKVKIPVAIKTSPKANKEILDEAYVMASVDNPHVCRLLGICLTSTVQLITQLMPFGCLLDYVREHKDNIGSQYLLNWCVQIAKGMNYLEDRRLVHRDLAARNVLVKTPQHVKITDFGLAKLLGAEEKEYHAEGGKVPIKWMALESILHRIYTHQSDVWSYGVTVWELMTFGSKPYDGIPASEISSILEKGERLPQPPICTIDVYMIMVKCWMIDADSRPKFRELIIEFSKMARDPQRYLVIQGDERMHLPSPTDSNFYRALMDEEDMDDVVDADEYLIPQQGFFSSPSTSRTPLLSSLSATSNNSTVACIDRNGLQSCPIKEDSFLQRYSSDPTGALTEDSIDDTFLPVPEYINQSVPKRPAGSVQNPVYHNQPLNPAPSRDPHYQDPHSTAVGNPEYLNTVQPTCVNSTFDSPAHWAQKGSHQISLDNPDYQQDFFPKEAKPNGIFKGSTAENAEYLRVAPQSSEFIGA
Chain of EGFR L858R (P00533 25-1210 L858R): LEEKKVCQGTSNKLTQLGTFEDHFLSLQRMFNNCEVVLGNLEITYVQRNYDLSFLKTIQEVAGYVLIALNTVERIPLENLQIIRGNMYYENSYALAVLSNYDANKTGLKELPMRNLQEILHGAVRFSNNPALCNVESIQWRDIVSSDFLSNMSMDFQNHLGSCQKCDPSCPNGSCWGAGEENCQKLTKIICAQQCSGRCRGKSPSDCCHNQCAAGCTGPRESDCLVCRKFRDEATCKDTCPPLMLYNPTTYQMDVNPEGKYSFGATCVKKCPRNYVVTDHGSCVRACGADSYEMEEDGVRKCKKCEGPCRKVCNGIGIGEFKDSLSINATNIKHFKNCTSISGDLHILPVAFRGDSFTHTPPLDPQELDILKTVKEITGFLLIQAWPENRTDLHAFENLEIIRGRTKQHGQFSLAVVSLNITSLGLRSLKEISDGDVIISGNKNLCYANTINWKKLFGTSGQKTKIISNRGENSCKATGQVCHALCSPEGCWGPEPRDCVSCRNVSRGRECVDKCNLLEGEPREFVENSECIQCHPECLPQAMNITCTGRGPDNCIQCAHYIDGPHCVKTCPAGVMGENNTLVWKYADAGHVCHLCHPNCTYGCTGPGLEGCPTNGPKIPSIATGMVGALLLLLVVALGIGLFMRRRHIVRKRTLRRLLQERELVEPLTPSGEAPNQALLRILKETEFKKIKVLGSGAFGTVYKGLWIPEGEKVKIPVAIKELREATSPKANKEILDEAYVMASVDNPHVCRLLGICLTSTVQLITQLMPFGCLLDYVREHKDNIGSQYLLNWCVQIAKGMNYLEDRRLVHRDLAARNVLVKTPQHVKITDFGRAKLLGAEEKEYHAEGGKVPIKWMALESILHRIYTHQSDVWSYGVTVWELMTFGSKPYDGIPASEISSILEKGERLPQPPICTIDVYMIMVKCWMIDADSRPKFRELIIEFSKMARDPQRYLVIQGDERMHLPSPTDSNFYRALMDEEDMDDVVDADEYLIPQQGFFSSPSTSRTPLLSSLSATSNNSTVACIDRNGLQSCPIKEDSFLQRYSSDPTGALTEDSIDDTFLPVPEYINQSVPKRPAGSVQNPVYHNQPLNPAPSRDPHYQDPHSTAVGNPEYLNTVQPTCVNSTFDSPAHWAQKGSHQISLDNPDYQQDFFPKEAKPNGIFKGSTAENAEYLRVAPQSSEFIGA

| SMILES | IC50 [1] [nM] | IC50 (EGFR L858R) [nM] | IC50 (EGFR (d746-750)) [nM] |
| --- | --- | --- | --- |
| COc1cc2ncnc(-c3cn(C)nc3-c3ccccc3)c2nc1NC(=O)[C@@]12COC[C@@H]1C2 (single isomer, unassigned) [Example 431, (1R,5R)—N-(7-methoxy-4-(1-methyl-3-phenyl-1H-pyrazol-4-yl)pyrido[3,2-d]pyrimidin-6-yl)-3-oxabicyclo[3.1.0]hexane-1-carboxamide or (1S,5S)—N-(7-methoxy-4-(1-methyl-3-phenyl-1H-pyrazol-4-yl)pyrido[3,2-d]pyrimidin-6-yl)-3-oxabicyclo[3.1.0]hexane-1-carboxamide] | 1.2 | 1.4 | 0.6 |
| COc1cc2ncnc(-c3cn(C)nc3-c3ccccc3)c2cc1NC(=O)[C@]1(C)CCCO1 (single isomer, unassigned) [Example 258, (S)—N-(7-methoxy-4-(1-methyl-3-phenyl-1H-pyrazol-4-yl)quinazolin-6-yl)-2-methyltetrahydrofuran-2-carboxamide or (R)—N-(7-methoxy-4-(1-methyl-3-phenyl-1H-pyrazol-4-yl)quinazolin-6-yl)-2-methyltetrahydrofuran-2-carboxamide] | 4.2 | 3.8 | 0.9 |
| CCC(=O)Nc1cc2c(-c3cn(C)nc3-c3ccccc3)ncnc2cc1OC [Example 322, N-(7-methoxy-4-(1-methyl-3-phenyl-1H-pyrazol-4-yl)quinazolin-6-yl)propionamide] | 1.6 | 2.1 | 1.7 |
| COc1cc2ncnc(-c3cn(CCO)nc3-c3ccccc3)c2cc1NC(=O)c1ccccc1F [Example 264, 2-fluoro-N-(4-(1-(2-hydroxyethyl)-3-phenyl-1H-pyrazol-4-yl)-7-methoxyquinazolin-6-yl)benzamide] | 0.3 | 0.6 | 0.4 |
| COc1cc2ncnc(-c3cn(CC(F)F)nc3-c3ccccc3)c2cc1NC(=O)c1cnc(C)s1 [Example 274, N-(4-(1-(2,2-difluoroethyl)-3-phenyl-1H-pyrazol-4-yl)-7-methoxyquinazolin-6-yl)-2-methylthiazole-5-carboxamide] | 0.6 | 1.5 | 0.9 |
| Cn1cc(-c2ncnc3cc(C(F)(F)F)c(NC(=O)C45COCC4C5)nc23)c(-c2ccccc2)n1 (stereo not drawn) [Example 483, N-(4-(1-methyl-3-phenyl-1H-pyrazol-4-yl)-7-(trifluoromethyl)pyrido[3,2-d]pyrimidin-6-yl)-3-oxabicyclo[3.1.0]hexane-1-carboxamide] | 1710 | 748 | 300 |
| COc1cc2ncnc(-c3cn(C)nc3-c3ccccc3)c2cc1C(C)(C)O [Example 121, 2-(7-methoxy-4-(1-methyl-3-phenyl-1H-pyrazol-4-yl)quinazolin-6-yl) propan-2-ol] | 13.8 | 7.6 | 2.7 |
| CCOc1cc2ncnc(-c3cn(C)nc3-c3ccccc3)c2nc1NC(=O)[C@]12C[C@H]1CN(C)C2 (single isomer, unassigned) [Example 378, (1R,5R)—N-(7-ethoxy-4-(1-methyl-3-phenyl-1H-pyrazol-4-yl)pyrido[3,2-d]pyrimidin-6-yl)-3-methyl-3-azabicyclo[3.1.0]hexane-1-carboxamide or (1S,5S)—N-(7-ethoxy-4-(1-methyl-3-phenyl-1H-pyrazol-4-yl)pyrido[3,2-d]pyrimidin-6-yl)-3-methyl-3-azabicyclo[3.1.0]hexane-1-carboxamide] | 1.2 | 1.3 | 0.7 |
| CCn1cc(-c2ncnc3cc(OC)c(NC(=O)c4cnn(C(F)(F)F)c4)cc23)c(-c2ccccc2)n1 [Example 307, N-(4-(1-ethyl-3-phenyl-1H-pyrazol-4-yl)-7-methoxyquinazolin-6-yl)-1-(trifluoromethyl)-1H-pyrazole-4-carboxamide] | 1.4 | 1.7 | 0.9 |
| COc1cc2ncnc(-c3cn(C)nc3-c3ccccc3)c2cc1NC(=O)C(C)(C)N(C)C [Example 246, 2-(dimethylamino)-N-(7-methoxy-4-(1-methyl-3-phenyl-1H-pyrazol-4-yl)quinazolin-6-yl)-2-methylpropanamide] | 7.8 | 5.6 | 2.5 |
| COc1cc2ncnc(-c3cn(C)nc3-c3ccccc3)c2cc1OC(=O)N1CCNCC1(C)C [Example 86, 7-methoxy-4-(1-methyl-3-phenyl-1H-pyrazol-4-yl)quinazolin-6-yl 2,2-dimethylpiperazine-1-carboxylate] | 5.8 | 5 | 2.5 |
| CCOc1cc2ncnc(-c3cn(C)nc3-c3ccccc3)c2cc1NC(=O)c1ccc(C2CC2)nc1 [Example 297, 6-cyclopropyl-N-(7-ethoxy-4-(1-methyl-3-phenyl-1H-pyrazol-4-yl)quinazolin-6-yl)nicotinamide] | 0.9 | 0.9 | 0.5 |
| COc1cc2ncnc(-c3cn(C)nc3-c3ccccc3)c2cc1NC(=O)C[C@@H]1CCCO1 [Example 281, (S)—N-(7-methoxy-4-(1-methyl-3-phenyl-1H-pyrazol-4-yl)quinazolin-6-yl)-2-(tetrahydrofuran-2-yl) acetamide] | 2.3 | 2.2 | 1.4 |
| COc1cc2ncnc(-c3cn(C)nc3-c3ccccc3)c2cc1NC(=O)c1ccnnc1 [Example 328, N-(7-methoxy-4-(1-methyl-3-phenyl-1H-pyrazol-4-yl)quinazolin-6-yl)pyridazine-4-carboxamide] | 4.5 | 2.3 | 1.1 |
| CCn1cc(-c2ncnc3cc(OC)c(OC(=O)N4CCN(C)C[C@@H]4C)cc23)c(-c2ccccc2)n1 [Example 95, 4-(1-ethyl-3-phenyl-1H-pyrazol-4-yl)-7-methoxyquinazolin-6-yl(S)-2,4-dimethylpiperazine-1-carboxylate] | 2.4 | 3 | 1.7 |
| COc1cc2ncnc(-c3cn(C)nc3-c3ccccc3)c2cc1NC(=O)[C@H](C)N(C)C (single isomer, unassigned) [Example 236, (S)-2-(dimethylamino)-N-(7-methoxy-4-(1-methyl-3-phenyl-1H-pyrazol-4-yl)quinazolin-6-yl) propenamide or (R)-2-(dimethylamino)-N-(7-methoxy-4-(1-methyl-3-phenyl-1H-pyrazol-4-yl)quinazolin-6-yl) propenamide] | 3.9 | 3.8 | 1.4 |
| COc1cc2ncnc(-c3cn(C)nc3-c3ccc(F)cc3)c2nc1NC(=O)C1(C(F)(F)F)CC1 [Example 362, N-(4-(3-(4-fluorophenyl)-1-methyl-1H-pyrazol-4-yl)-7-methoxypyrido[3,2-d]pyrimidin-6-yl)-1-(trifluoromethyl)cyclopropane-1-carboxamide] | 0.7 | 1.1 | 0.5 |
| COc1cc2ncnc(-c3cn(CC(F)F)nc3-c3ccccc3)c2cc1O[C@@H]1CCN(C)C[C@H]1F [Example 3, 4-(1-(2,2-difluoroethyl)-3-phenyl-1H-pyrazol-4-yl)-6-(((3R,4R)-3-fluoro-1-methylpiperidin-4-yl)oxy)-7-methoxyquinazoline] | 0.3 | 2.4 | 1.5 |
| Cc1nn(C)c(-c2ccccc2)c1-c1ncnc2cc(-c3cnn(C)c3)ccc12 [Example 481, 4-(1,3-dimethyl-5-phenyl-1H-pyrazol-4-yl)-7-(1-methyl-1H-pyrazol-4-yl)quinazoline] | 953 | 70.5 | 78 |
| COc1cc2ncnc(-c3cn(C)nc3-c3ccccc3)c2cc1NC(=O)[C@H](C)F (single isomer, unassigned) [Example 244, (S)-2-fluoro-N-(7-methoxy-4-(1-methyl-3-phenyl-1H-pyrazol-4-yl)quinazolin-6-yl) propenamide or (R)-2-fluoro-N-(7-methoxy-4-(1-methyl-3-phenyl-1H-pyrazol-4-yl)quinazolin-6-yl) propenamide] | 2.3 | 2.2 | 1.3 |
| COc1cc2ncnc(-c3cn(C)nc3-c3ccccc3)c2cc1OC(=O)N1CCO[C@@H](C)[C@@H]1C [Example 72, 7-methoxy-4-(1-methyl-3-phenyl-1H-pyrazol-4-yl)quinazolin-6-yl (2S,3S)-2,3-dimethylmorpholine-4-carboxylate] | 5.1 | 3.8 | 1.7 |
| COc1cc2ncnc(-c3cn(C)nc3-c3ccccc3)c2nc1NC(=O)C1(C(F)F)CC1 [Example 369, 1-(difluoromethyl)-N-(7-methoxy-4-(1-methyl-3-phenyl-1H-pyrazol-4-yl)pyrido[3,2-d]pyrimidin-6-yl)cyclopropane-1-carboxamide] | 0.9 | 1.3 | 0.7 |
| CCc1nc2c(-c3cn(C)nc3-c3ccccc3)ncnc2cc1OC [Example 136, 6-ethyl-7-methoxy-4-(1-methyl-3-phenyl-1H-pyrazol-4-yl)pyrido[3,2-d]pyrimidine] | 1.3 | 0.8 | 0.4 |
| COc1cc2ncnc(-c3c[nH]nc3-c3ccccc3)c2cc1[C@@H]1CCCCO1 (single isomer, unassigned) [Example 132, (S)-7-methoxy-4-(3-phenyl-1H-pyrazol-4-yl)-6-(tetrahydro-2H-pyran-2-yl)quinazoline or (R)-7-methoxy-4-(3-phenyl-1H-pyrazol-4-yl)-6-(tetrahydro-2H-pyran-2-yl)quinazoline] | 0.6 | 1.4 | 0.9 |

From patent US20250236608A1, “EGFR INHIBITORS” (Blueprint Medicines Corporation, priority 2022, published 2025)
